Experimental data taken from ChEMBL document CHEMBL4483862, “Open-source discovery of chemical leads for next-generation chemoprotective antimalarials” (2018).

Tested on: Plasmodium berghei
Assay: Luciferase/luciferin-expressing antifolate-resistant parasites were used to infect a culture of HepG2 cells that were pre-incubated with compounds. Infected hepatocytes emit light due to the luciferase reaction. Assay results are presented as the percent inhibition of light emission compared to control. […]
Format: functional
Details: sporozoite; for IC50: read-out: LUCIFERASE INFECTION ASSAY - IC50; for IC90: read-out: LUCIFERASE INFECTION ASSAY - IC90

| Compound | IC50 [µM] | IC90 [µM] |
| --- | --- | --- |
| Cc1nc(-c2ccsc2)sc1C(=O)Nc1nc(-c2ccc(NS(C)(=O)=O)cc2)cs1 | 5.84 | 8.82 |
| COc1cc(NC(=O)Cc2c(F)cccc2Cl)cc(OC)c1OC | > 10 | > 10 |
| O=C(NCCC1=CCCCC1)c1ccccc1CN1C(=O)CNC1=O | > 10 | > 10 |
| CCc1nnc(NC(=O)CCSCc2cn3ccccc3n2)s1 | > 10 | > 10 |
| Cc1oc(=S)n(CN2CCN(S(=O)(=O)c3ccc4ccccc4c3)CC2)c1C | > 10 | > 10 |
| O=C(COc1ccccc1C(=O)NCc1ccccc1)NC(c1ccc(F)cc1)c1cccs1 (stereo unspecified) | 8.41 | > 10 |
| COCCN(Cc1nc(=O)c2ccccc2[nH]1)C(=O)c1cc(C(C)(C)C)cc(C(C)(C)C)c1O | > 10 | > 10 |
| CSCc1nc(=O)c2c(C)c(C(=O)NN3C(=O)NC(C)(c4ccccc4)C3=O)sc2[nH]1 (stereo unspecified) | > 10 | > 10 |
| CC(Sc1nncs1)C(=O)Nc1cc([N+](=O)[O-])ccc1Cl (stereo unspecified) | > 10 | > 10 |
| Cc1ccc(-c2c(C)sc3[nH]c(CN(C)CC(=O)Nc4cccc(C)c4C)nc(=O)c23)cc1 | > 10 | > 10 |
| Cc1ccc(S(=O)(=O)N2CCCC(C(=O)NNC(=O)CCNC(=O)/C=C/c3ccccc3)C2)cc1 (stereo unspecified) | > 10 | > 10 |
| O=C(CNc1ccccc1-c1ccccc1)Nc1cc(Cl)ccc1F | > 10 | > 10 |
| CN(CC(=O)Nc1ccc(Cl)c(S(=O)(=O)N2CCOCC2)c1)C(=O)C1CCCO1 (stereo unspecified) | > 10 | > 10 |
| Cc1cc(=O)n2nc(-c3ccccc3)cc2n1CC(=O)Nc1cc(Cl)ccc1N1CCCCC1 | 3.43 | 4.37 |
| Cc1sc2ncnc(SCC(=O)NC3CCN(Cc4ccccc4)C3)c2c1C (stereo unspecified) | > 10 | > 10 |
| Cc1ccccc1C(C)NC(=O)c1c[nH]c(=S)n1-c1ccccc1 (stereo unspecified) | > 10 | > 10 |
| COCCn1cnc2c1c(=O)n(CC(=O)NC1(C#N)CCCCCC1)c(=O)n2CC(C)C | > 10 | > 10 |

| Compound | IC50 [µM] | IC90 [µM] |
| --- | --- | --- |
| Cc1ccc(CN(CCc2ccccc2)Cn2nc(CCC(N)=O)n(C3CC3)c2=S)s1 | > 10 | > 10 |
| Cc1ccc(-c2n[nH]c(=S)n2CCC(=O)NC(C)c2ccc(F)c(F)c2)cc1 (stereo unspecified) | > 10 | > 10 |
| O=C(Nc1ccc2c(c1)OCO2)C1CCN(Cn2nc3n(c2=O)CCCCC3)CC1 | > 10 | > 10 |
| COc1ccccc1-n1nnnc1SC(C)C(=O)Nc1ccc2[nH]c(=O)[nH]c2c1 (stereo unspecified) | > 10 | > 10 |
| Cc1cc(-c2csc(Cc3ccccc3)n2)c(C)n1NC(=O)c1nn(C)c(=O)c2ccccc12 | > 10 | > 10 |
| CCN(CC)C(=O)CN1CCN(C(=O)c2ccc(S(=O)(=O)N3CCOCC3)cc2)CC1 | > 10 | > 10 |
| COC(=O)c1cccnc1Nc1ccc(NS(=O)(=O)c2ccc(F)c(F)c2)cc1 | > 10 | > 10 |
| Cc1cc(N2CCN(C)CC2)ccc1NC(=O)c1cnc2c(c1)c(=O)n(C)c(=O)n2C | > 10 | > 10 |
| CN(C)S(=O)(=O)c1ccc2nnn(OCCCOc3ccc(C(C)(C)C)cc3)c2c1 | > 10 | > 10 |
| C=CCNc1nnc(SCC(=O)Nc2c(Cl)cc(Cl)cc2C(=O)O)s1 | > 10 | > 10 |
| CC(=O)c1sc(-c2ccc(OCC(=O)Nc3ccc(S(=O)(=O)N4CCCC4)cc3)cc2)nc1C | > 10 | > 10 |
| COc1ccc(C(C)NC(=O)CCCN2C(=O)c3ccccc3C2=O)cc1F (stereo unspecified) | > 10 | > 10 |
| O=C(Nc1ccc(-c2nccs2)cc1)c1occc1COc1ccccc1 | > 10 | > 10 |
| CCc1ccc(CNCc2ccc3c(c2)OCO3)cc1 | > 12.3 | > 12.3 |
| Cc1c(C(=O)Nc2cccc(S(=O)(=O)N(C)C)c2)cnn1-c1ccc(=O)[nH]n1 | > 10 | > 10 |
| CCn1c(SCCC(=O)Nc2cc(C)on2)nnc1-c1ccc(C(C)(C)C)cc1 | > 10 | > 10 |
